The NIST ThermoML archive (doi:10.1016/j.fluid.2014.01.019)

Test: xn = mol fraction of the nth substance listed
Details: 101 kPa, Liquid; for mass density: Vibrating tube method; for speed of sound: Frequency=2 MHz, Linear variable-path acoustic interferometer

Cc1cccc(Cl)c1 [3-chlorotoluene] + OCc1ccccc1
Details | mass density, 298.15 K [kg/m3] | mass density, 303.15 K [kg/m3] | mass density, 308.15 K [kg/m3] | mass density, 313.15 K [kg/m3] | speed of sound, 303.15 K [m/s] | speed of sound, 313.15 K [m/s]
x2 = 0.0583 | 1065.82 | 1061.18 | 1056.8 | 1052.23 | 1298 | 1294
x2 = 0.1107 | 1064.36 | 1059.84 | 1055.47 | 1050.83 | 1316 | 1304
x2 = 0.1903 | 1062.34 | 1057.86 | 1053.42 | 1048.82 | 1340 | 1321
x2 = 0.2401 | 1061.05 | 1056.6 | 1052.17 | 1047.95 | 1356 | 1331
x2 = 0.3028 | 1059.47 | 1055.2 | 1050.6 | 1046.35 | 1374 | 1343
x2 = 0.3703 | 1057.61 | 1053.44 | 1048.89 | 1044.54 | 1394 | 1356
x2 = 0.4442 | 1055.83 | 1051.49 | 1047.05 | 1042.9 | 1414 | 1371
x2 = 0.5405 | 1053.04 | 1049.21 | 1044.67 | 1040.69 | 1440 | 1389
x2 = 0.6285 | 1050.88 | 1046.99 | 1042.53 | 1038.52 | 1462 | 1409
x2 = 0.7019 | 1049.03 | 1045.09 | 1040.75 | 1036.95 | 1477 | 1422
x2 = 0.7558 | 1047.64 | 1043.62 | 1039.43 | 1035.23 | 1487 | 1435
x2 = 0.8109 | 1046.31 | 1042.35 | 1038.15 | 1034.05 | 1494 | 1446
x2 = 0.8546 | 1045.2 | 1041.4 | 1037.11 | 1033.02 | 1501 | 1455
x2 = 0.8946 | 1044.04 | 1040.31 | 1036.18 | 1032.43 | 1504 | 1462
x2 = 0.9498 | 1042.49 | 1038.83 | 1034.89 | 1030.91 | 1510 | 1474
